Patent publication US5338550A, “Stereoisomer therapy” (priority 1992, dated 1994)
Converted amounts (≈) assume the structure as drawn.

Key:
Crystal lattice energy = type: physicochemical
[1] = Density (bulk, tapped, tablet); type: physicochemical
Experimental: Next, the granulations are fed to a Manesty layer press fitted with two hoppers, one hopper is filled with the slow-layer granulation, the other hopper is filled with the fast-layer granulation. A bilayer tablet dosage form is then compressed by first forming a 690 mg second layer, then a 230 mg first layer is pressed in release retaining relation to the second layer. The first layer and second layers are pressed together under a pressure head of two tons. This manufacturing process produces the bilayer dosage form. […] The final composition of the second layer comprises 58 wt % racemic (±) ibuprofen, 15 wt % hydroxypropylmethylcellulose having a 242,000 molecular weight, 25 wt % hydroxypropylmethylcellulose having a 9,200 molecular weight and 2 wt % stearic acid.

Row | SMILES | crystal lattice energy (Crystal lattice energy) | solubility (physchem; artificial gastric juice) | solubility (physchem; artificial intestinal juice) | solubility (physchem; water) | bulk density [1] | tablet density [1] | tapped density [1]
1 | CC(C)Cc1ccc(C(C)C(=O)O)cc1 (racemic) [racemic ibuprofen] | 117 joules/g | 79 µg/mL (≈ 383 µM) | 5910 µg/mL (≈ 28600 µM) | 82 µg/mL (≈ 398 µM) | 0.328 g/cc | 1.052 g/cc | 0.483 g/cc
2 | CC(C)Cc1ccc([C@H](C)C(=O)O)cc1 [S(+) ibuprofen] | 90.3 joules/g | 131 µg/mL (≈ 635 µM) | 6980 µg/mL (≈ 33800 µM) | 134 µg/mL (≈ 650 µM) | 0.277 g/cc | 1.038 g/cc | 0.391 g/cc
